Experimental findings from US4510307A, “6-Quinazolinesulfonyl derivatives and process for preparation thereof” (Asahi Kasei Kogyo Kabushiki Kaisha, priority 1980, dated 1985) are described below.

This assay concerns mesenteric artery. The assay is described as follows: Relaxation of Mesenteric Artery (isolated rabbit mesenteric artery contracted with KCl). Conditions: Oryctolagus cuniculus, concentration for 50% relaxation, KCl 15~20 mM contraction, read-out: Relaxation of Mesenteric Artery ED50. On the procedure:
When, for example, 1-[4-(N-methyl-N-cyclohexylamino)-6-quinazolinesulfonyl]-4-(2-ethoxy-2-phenylethyl)piperazine was added and a complete relaxation was designated 100%, the concentration which could bring about a relaxation of 50%, i.e., ED50 was 0.8 μM.
After a home bred rabbit of a Japanese species weighing about 3 Kg was subjected to bloodletting, resulting in death and then to abdominal incision, the mesenteric artery was taken out, cut into helicoids of 2 mm×25 mm and suspended in a 20 ml organ bath filled with a Krebs-Henseleit solution into which a mixed gas of 95% by volume of O2 and 5% by volume of CO2 was introduced and one end of the artery was connected with an isometric transducer. When a load of 1.5 g was applied to the artery, the contraction and the relaxation of the artery was recorded as a weight on the transducer (a product of Nippon Koden K.K., Japan, "FD Pickup TB-912T"). The relaxation of the mesenteric artery was observed by adding the 6-quinazolinesulfonyl derivatives and their pharmaceutically acceptable acid addition salts to the mesenteric artery at the condition of about one half of the maxinum contraction with KCl at a KCl concentrantion of 15~20 mM. When the complete relaxation of the mesenteric artery was designated 100%, the concentration of the 6-quinazolinesulfonyl derivatives and their pharmaceutically acceptable acid addition salts which brought about a relaxation of 50% is shown in Table 6.
With `CCOC(CN1CCN(S(=O)(=O)c2ccc3ncnc(N)c3c2)CC1)c1ccccc1` (centres unmarked) [Compound (1), 1-(4-amino-6-quinazolinesulfonyl)-4-(2-ethoxy-2-phenylethyl)piperazine], the EC50 was determined as 9.8 µM.

For `CCOC(CN1CCN(S(=O)(=O)c2ccc3ncnc(N(C)C)c3c2)CC1)c1ccccc1` (centres unmarked) [Compound (2), 1-(4-dimethylamino-6-quinazolinesulfonyl)-4-(2-ethoxy-2-phenylethyl)-piperazine], the EC50 turned out to be 4.5 µM.

As to `CCOC(CN1CCN(S(=O)(=O)c2ccc3ncnc(N(CC)CC)c3c2)CC1)c1ccccc1` (centres unmarked) [Compound (3), 1-(4-diethylamino-6-quinazolinesulfonyl)-4-(2-ethoxy-2-phenylethyl)-piperazine], the EC50 turned out to be 5 µM.

Take `COC(CN1CCN(S(=O)(=O)c2ccc3ncnc(N4CCCCC4)c3c2)CC1)c1ccccc1` (centres unmarked) [Compound (5), 1-(4-piperidino-6-quinazolinesulfonyl)-4-(2-methoxy-2-phenylethyl)-piperazine]: the EC50 is 5.8 µM.

On to `CC(C)OC(CN1CCN(S(=O)(=O)c2ccc3ncnc(N4CCCCC4)c3c2)CC1)c1ccccc1` (centres unmarked) [Compound (7), 1-(4-piperidino-6-quinazolinesulfonyl)-4-(2-isopropoxy-2-phenylethyl)-piperazine], for which the EC50 was found to be 2.2 µM.

For `CC(C)COC(CN1CCN(S(=O)(=O)c2ccc3ncnc(N4CCCCC4)c3c2)CC1)c1ccccc1` (centres unmarked) [Compound (8), 1-(4-piperidino-6-quinazolinesulfonyl)-4-(2-isobutoxy-2-phenylethyl)-piperazine], the EC50 was determined as 10.7 µM.

As to `CCOC(CN1CCN(S(=O)(=O)c2ccc3ncnc(N4CCOCC4)c3c2)CC1)c1ccccc1` (centres unmarked) [Compound (14), 1-(4-morpholino-6-quinazolinesulfonyl)-4-(2-ethoxy-2-phenylethyl)-piperazine], the EC50 was 9.5 µM.

In the case of `CCOC(CN1CCN(S(=O)(=O)c2ccc3ncnc(NC4CCCCC4)c3c2)CC1)c1ccccc1` (centres unmarked) [Compound (15), 1-(4-cyclohexylamino-6-quinazolinesulfonyl)-4-(2-ethoxy-2-phenylethyl)-piperazine], the EC50 came out at 1.6 µM.

As to `CCOC(CN1CCN(S(=O)(=O)c2ccc3ncnc(Nc4ccccc4)c3c2)CC1)c1ccccc1` (centres unmarked) [Compound (16), 1-(4-anilino-6-quinazolinesulfonyl)-4-(2-ethoxy-2-phenylethyl)piperazine], the EC50 stood at 2.7 µM.

On to `CCOC(CN1CCN(S(=O)(=O)c2ccc3ncnc(NCc4ccccc4)c3c2)CC1)c1ccccc1` (centres unmarked) [Compound (17), 1-(4-benzylamino-6-quinazolinesulfonyl)-4-(2-ethoxy-2-phenylethyl)-4-(2-ethoxy-2-phenylethyl)piperazine], for which the EC50 was 3.2 µM.

Consider `CCOC(CN1CCN(S(=O)(=O)c2ccc3ncnc(N(C)C4CCCC4)c3c2)CC1)c1ccccc1` (centres unmarked) [Compound (18), 1-[4-(N-methyl-N-cyclopentylamino)-6-quinazolinesulfonyl]-4-(2-ethoxy-2-phenylethyl)piperazine], for which the EC50 is 1.4 µM.

For `CCOC(CN1CCN(S(=O)(=O)c2ccc3ncnc(N(C)C4CCCCCC4)c3c2)CC1)c1ccccc1` (centres unmarked) [Compound (20), 1-[4-(N-methyl-N-cycloheptylamino)-6-quinazolinesulfonyl]-4-(2-ethoxy-2-phenylethyl)piperazine], the EC50 came to 3.7 µM.

As for `CCOC(CN1CCN(S(=O)(=O)c2ccc3ncnc(N(CC(C)C)C4CCCCC4)c3c2)CC1)c1ccccc1` (centres unmarked) [Compound (22), 1-[4-(N-isobutyl-N-cyclohexylamino)-6-quinazolinesulfonyl]-4-(2-ethoxy-2-phenylethyl)piperazine], the EC50 came out at 2.5 µM.

On to `COC(CN1CCN(S(=O)(=O)c2ccc3ncnc(N(C)C4CCCCC4)c3c2)CC1)c1ccccc1` (centres unmarked) [Compound (26), 1-[4-(N-methyl-N-cyclohexylamino)-6-quinazolinesulfonyl]-4-(2-methoxy-2-phenylethyl)piperazine], for which the EC50 was found to be 1.4 µM.

For `CC(C)OC(CN1CCN(S(=O)(=O)c2ccc3ncnc(N(C)C4CCCCC4)c3c2)CC1)c1ccccc1` (centres unmarked) [Compound (27), 1-[4-(N-methyl-N-cyclohexylamino)-6-quinazolinesulfonyl]-4-(2-isopropoxy-2-phenylethyl)piperazine], the EC50 was 0.9 µM.

For the molecule `CC(C)COC(CN1CCN(S(=O)(=O)c2ccc3ncnc(N(C)C4CCCCC4)c3c2)CC1)c1ccccc1` (centres unmarked) [Compound (28), 1-[4-(N-methyl-N-cyclohexylamino)-6-quinazolinesulfonyl]-4-(2-isobutoxy-2-phenylethyl)piperazine], the EC50 worked out at 1.3 µM.

Take `NCCNS(=O)(=O)c1ccc2ncnc(N3CCCCC3)c2c1` [Compound (29), N-(2-aminoethyl)-4-piperidino-6-quinazolinesulfonamide]: the EC50 was 33 µM.

`NCCCNS(=O)(=O)c1ccc2ncnc(N3CCCCC3)c2c1` [Compound (30), N-(3-aminopropyl)-4-piperidino-6-quinazolinesulfonamide]: the EC50 was 30 µM.

Regarding `NCCCCCCCCCCNS(=O)(=O)c1ccc2ncnc(N3CCCCC3)c2c1` [Compound (33), N-(10-aminodecyl)-4-piperidino-6-quinazolinesulfonamide], the EC50 was found to be 34 µM.

`NCCCCNS(=O)(=O)c1ccc2ncnc(N3CCCC3)c2c1` [Compound (34), N-(4-aminobutyl)-4-(1-pyrrolidinyl)-6-quinazolinesulfonamide]: the EC50 turned out to be 27 µM.

Take `CN(C)c1ncnc2ccc(S(=O)(=O)NCCCCN)cc12` [Compound (35), N-(4-aminobutyl)-4-dimethylamino-6-quinazolinesulfonamide]: the EC50 is 54 µM.

In the case of `CCN(CC)c1ncnc2ccc(S(=O)(=O)NCCCCN)cc12` [Compound (36), N-(4-aminobutyl)-4-diethylamino-6-quinazolinesulfonamide], the EC50 worked out at 50 µM.

For `CCCCCCN(CCCCCC)c1ncnc2ccc(S(=O)(=O)NCCCCN)cc12` [Compound (38), N-(4-aminobutyl)-4-dihexylamino-6-quinazolinesulfonamide], the EC50 came out at 12 µM.
